Experiments:
TXA2 receptor = biological target: T1, TXA2 receptor (Cavia porcellus, UniProt A0A286Y4I8); assay: TXA2 antagonistic effects: U-46619-induced constriction of isolated guinea pig tracheal muscle strips; format: cell-based; conditions: U-46619 cumulative, 5 min pre-treatment, Van Rossum's method
T1 construct: the tracheae were excised and made into tracheal muscle strips; from tissue; host or cells: guinea pig tracheal muscle strips
T1 sequence (A0A286Y4I8 1-347): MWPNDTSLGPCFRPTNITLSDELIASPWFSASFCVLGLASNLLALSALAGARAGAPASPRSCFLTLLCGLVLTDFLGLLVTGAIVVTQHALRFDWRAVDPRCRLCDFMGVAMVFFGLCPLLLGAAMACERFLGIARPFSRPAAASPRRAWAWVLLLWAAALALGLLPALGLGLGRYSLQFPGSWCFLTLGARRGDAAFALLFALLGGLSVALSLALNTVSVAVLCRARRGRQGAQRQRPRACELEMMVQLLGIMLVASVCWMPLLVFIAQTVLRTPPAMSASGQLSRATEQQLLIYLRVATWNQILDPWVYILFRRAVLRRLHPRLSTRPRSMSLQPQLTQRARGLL
Description: Guinea pigs were bled to death, and the tracheae were excised and made into tracheal muscle strips in accordance with Takagi et al. The strips were suspended with a 1 g load in Magnus tubes filled with 2 ml Tyrode solution maintained at 37° C. under aeration with a 95% O2-5% CO2 gas mixture, and U-46619-induced constrictions were isotonically recorded.
(§1) After equilibration of the tonuses of the strips, constrictive responses to cumulative addition of 10^−10−10^7M U-46619 were observed. After the constrictive responses reached equilibrium, U-46619 was added again cumlatively 5 minutes after pre-treatment with a test substance to induce constriction. The pA2 values were calculated in accordance with Van Rossum's method.

LTD4 receptor = biological target: T2, LTD4 receptor (Cavia porcellus, UniProt Q2NNR5); assay: LTD4 antagonistic effects: LTD4-induced constriction of isolated guinea pig ileum preparations; format: cell-based; conditions: LTD4 0.05-3.5 ng/ml cumulative, 5 min pre-treatment, Van Rossum's method
T2 construct: the ilea were excised and made into ileum preparations; from tissue; host or cells: guinea pig ileum
T2 sequence (Q2NNR5 1-340): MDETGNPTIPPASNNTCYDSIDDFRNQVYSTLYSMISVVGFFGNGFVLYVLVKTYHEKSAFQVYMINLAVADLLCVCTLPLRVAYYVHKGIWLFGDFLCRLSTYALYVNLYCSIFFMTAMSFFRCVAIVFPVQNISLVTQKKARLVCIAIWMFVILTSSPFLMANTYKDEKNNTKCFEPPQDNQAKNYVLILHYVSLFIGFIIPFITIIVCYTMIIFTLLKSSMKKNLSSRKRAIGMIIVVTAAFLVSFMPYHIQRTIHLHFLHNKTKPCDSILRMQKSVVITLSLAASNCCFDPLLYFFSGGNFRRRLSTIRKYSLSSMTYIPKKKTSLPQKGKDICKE
Description: Guinea pigs were bled to death, and the ilea were excised and made into ileum preparations. The ileum preparations were suspended with a 1 g load in Magnus tubes filled with 2 ml Tyrode solution maintained at 37° C. under aeration with a 95% O2-5% CO2 gas mixture, and LTD4-induced constrictions were isotonically recorded.
as §1, with “ilea,” for “strips,”, “0.05-3.5 ng/ml LTD4” for “10^−10−10^7M U-46619”, “LTD4” for “U-46619”, “cumulatively” for “cumlatively”

ICR mice = assay: Acute toxicity test in ICR mice; format: in vivo, mouse
[1] = system: passively sensitized guinea pigs; assay: Antiasthmatic effects: immediate asthmatic response of passively sensitized guinea pigs (airway resistance); format: in vivo, guinea pig; conditions: 3 mg/kg i.v. 5 min before antigen inhalation (1% ovalbumin); airway resistance 5 min after inhalation
Description: The antiasthmatic effects were evaluated by the immediate asthmatic responses of passively sensitized guinea pigs. The previous day, the guinea pigs were sensitized by intravenous injections of a 10-fold diluted anti-DNP-ovalbumin guinea pig serum (guinea pig PCA titer; X1024) on the ears. The day of the test, after pre-treatment with pyrilamine (10 mg/kg i.p.), normal airway resitances were measured with a double flow plethysmograph in accordance with Pennock et al. The test substances (3 mg/kg) in DMSO were dissolved in 50% normal guinea pig serum-saline and intravenously injected from the ear vein 5 minutes before inhalation of the antigen. Immediate asthmatic responses were induced by 3 minutes of inhalational exposure to 1% ovalbumin in saline as the antigen from an ultrasonic neblizer, and the airway resistances were measured 5 minutes (4 to 6 minutes) after the inhalation. The results are expressed by the inhibition rates given by the following expression:
Inhibition rate (%)=(1−(A−B)/(C−D))×100
A: the airway resistance with a test substance after inhalation of the antigen,
B: the airway resistance with a test substance before inhalation of the antigen,
C: the airway resistance with a control after inhalation of the antigen,
D: the airway resistance with a control before inhalation of the antigen.

SMILES	TXA2 inhibitory effect (pA2) (TXA2 receptor)	LTD4 inhibitory effect (pA2) (LTD4 receptor)	Acute toxicity (mortality), intravenous (ICR mice; intravenously 100 mg/kg)	Acute toxicity (mortality), oral (ICR mice; orally 1000 mg/kg)	Antiasthmatic effect Inhibition rate (%) [1]	Kb (TXA2 receptor; read-out: TXA2 inhibitory effect (pA2) (converted))	Kb (LTD4 receptor; read-out: LTD4 inhibitory effect (pA2) (converted))
CC(C)c1csc(COc2cccc(CN(CCCCNS(=O)(=O)c3ccc(Cl)cc3)S(=O)(=O)c3ccccc3C(=O)O)c2)n1 [compound 1, 2-{N-[4-(4-chlorobenzenesulfonylamino)butyl]-N-{3-[(4-isopropyl-2-thiazolyl)methoxy]benzyl}}sulfamoylbenzoic acid]	8.30	9.73	none of the mice died	none of the mice died	53.5%		
CC(C)c1csc(COc2cccc(CN(CCCCNS(=O)(=O)c3ccc(Cl)cc3)S(=O)(=O)c3ccccc3-c3nnn[nH]3)c2)n1 [compound 91, 5-{2-{N-[4-(4-chlorobenzenesulfonylamino)butyl]-N-{3-[(4-isopropyl-2-thiazolyl)methoxy]benzyl}}sulfamoylphenyl}-1H-tetrazole]						18.6 nM	0.891 nM
